Results as given in PMC12638379, “An innovative approach to development of new pyrazolylquinolin-2-one hybrids as dual EGFR and BRAF^V600E inhibitors” (Molecular Diversity, 2025).
Like-named read-outs stand apart in the source and are kept apart here.

System: NCI 60 cancer cell lines
Assay: NCI anticancer screening over a panel of 60 cancer cells, single concentration 10 µM
Assay type: cell-based, human
Details: Homo sapiens, read-out: Growth inhibition (GI %)
Protocol: Ten final compounds 4a–j and five intermediates 2a–e have been selected by the National Cancer Institute (NCI) for anticancer screening over a panel of 60 cancer cells that cover a variety of histological tissues, including the central nervous system, leukemia, lung, colon, kidney, ovary, breast, and prostate, using the protocol established by the National Cancer Institute (NCI). In a primary screening, each compound was screened at a concentration of 10 µM.
Compounds 2a-e and 4a-j were selected by the National Cancer Institute (NCI) according to the protocol of the Compound Evaluation Branch of the National Cancer Institute, Bethesda, USA, for in vitro anticancer screening which refers in turn to apoptotic activity. The methodology of the NCI anticancer screening has been described in detail elsewhere (http://www.dtp.nci.nih.gov).

For `CC(=O)c1cnn(-c2cc(=O)[nH]c3ccc(Br)cc23)c1C` [Compound 2e, 4-(4-Acetyl-5-methyl-1H-pyrazol-1-yl)-6-bromoquinolin-2(1H)-one], the inhibition at 10 µM (786-0, Renal cancer 786-0, 10 μM) was less than 5%, the inhibition at 10 µM (A498, Renal cancer A498, 10 μM) was less than 5% and the inhibition at 10 µM (A549, Non-small cell lung cancer A549/ATCC, 10 μM) was less than 5%. For the same compound, the inhibition at 10 µM (ACHN, Renal cancer ACHN, 10 μM) was less than 5%, the inhibition at 10 µM (BT-549, Breast cancer BT-549, 10 μM) was less than 5% and the inhibition at 10 µM (CAKI-1, Renal cancer CAKI-1, 10 μM) was 16.5%. It also gave an inhibition at 10 µM (CCRF-CEM, Leukemia CCRF-CEM, 10 μM) of 8.16%, an inhibition at 10 µM (COLO 205, Colon cancer COLO 205, 10 μM) of less than 5% and an inhibition at 10 µM (DU-145, Prostate cancer DU-145, 10 μM) of less than 5%. The inhibition at 10 µM (EKVX, Non-small cell lung cancer EKVX, 10 μM) was 6.46%, the inhibition at 10 µM (HCC 2998, Colon cancer HCC-2998, 10 μM) was less than 5% and the inhibition at 10 µM (HCT-15, Colon cancer HCT-15, 10 μM) was less than 5%. For the same compound, the inhibition at 10 µM (HCT-116, Colon cancer HCT-116, 10 μM) was less than 5%, the inhibition at 10 µM (HL-60, Leukemia HL-60(TB), 10 μM) was 12.8% and the inhibition at 10 µM (HOP-62, Non-small cell lung cancer HOP-62, 10 μM) was 13.6%. For the same compound, the inhibition at 10 µM (HOP-92, Non-small cell lung cancer HOP-92, 10 μM) was 20.4%, the inhibition at 10 µM (HT-29, Colon cancer HT29, 10 μM) was 7.95% and the inhibition at 10 µM (Hs-578T, Breast cancer HS 578T, 10 μM) was 6.91%. For the same compound, the inhibition at 10 µM (IGROV-1, Ovarian cancer IGROV1, 10 μM) was less than 5%, the inhibition at 10 µM (K562, Leukemia K-562, 10 μM) was less than 5% and the inhibition at 10 µM (KM12, Colon cancer KM12, 10 μM) was less than 5%. The inhibition at 10 µM (LOX IMVI, Melanoma LOX IMVI, 10 μM) was 9.22%, the inhibition at 10 µM (Leukemia SR, 10 μM) was less than 5% and the inhibition at 10 µM (MCF7, Breast cancer MCF7, 10 μM) was less than 5%. It also gave an inhibition at 10 µM (MDA-MB-231, Breast Cancer MDA-MB 231/ATCC, 10 μM) of less than 5%, an inhibition at 10 µM (MDA-MB-435, Melanoma MDA-MB-435, 10 μM) of less than 5% and an inhibition at 10 µM (MDA-MB-468, Breast cancer MDA-MB-468, 10 μM) of less than 5%. It also gave an inhibition at 10 µM (MOLT-4, Leukemia MOLT-4, 10 μM) of less than 5%, an inhibition at 10 µM (Malme-3M, Melanoma MALME-3M, 10 μM) of 14% and an inhibition at 10 µM (Melanoma M14, 10 μM) of less than 5%. It also gave an inhibition at 10 µM (NCI-H23, Non-small cell lung cancer NCI-H23, 10 μM) of less than 5%, an inhibition at 10 µM (NCI-H226, Non-small cell lung cancer NCI-H226, 10 μM) of 10.7% and an inhibition at 10 µM (NCI-H322M, Non-small cell lung cancer NCI-H322M, 10 μM) of less than 5%. The inhibition at 10 µM (NCI-H460, Non-small cell lung cancer NCI-H460, 10 μM) was less than 5%, the inhibition at 10 µM (NCI-H522, Non-small cell lung cancer NCI-H522, 10 μM) was 7.32% and the inhibition at 10 µM (NCI/ADR-RES, Ovarian cancer NCI/ADR-RES, 10 μM) was less than 5%. It also gave an inhibition at 10 µM (OVCAR-3, Ovarian cancer OVCAR-3, 10 μM) of less than 5%, an inhibition at 10 µM (OVCAR-4, Ovarian cancer OVCAR-4, 10 μM) of less than 5% and an inhibition at 10 µM (OVCAR-5, Ovarian cancer OVCAR-5, 10 μM) of less than 5%. The inhibition at 10 µM (OVCAR-8, Ovarian cancer OVCAR-8, 10 μM) was less than 5%, the inhibition at 10 µM (Prostate cancer PC-3, 10 μM) was 13.3% and the inhibition at 10 µM (RPMI-8226, Leukemia RPMI-8226, 10 μM) was 9.34%. It also gave an inhibition at 10 µM (RXF 393, Renal cancer RXF 393, 10 μM) of less than 5%, an inhibition at 10 µM (SF-268, CNS Cancer SF-268, 10 μM) of less than 5% and an inhibition at 10 µM (SF-295, CNS Cancer SF-295, 10 μM) of 6.55%. The inhibition at 10 µM (SF-539, CNS Cancer SF-539, 10 μM) was 7.46%, the inhibition at 10 µM (SK-MEL-2, Melanoma SK-MEL-2, 10 μM) was less than 5% and the inhibition at 10 µM (SK-MEL-5, Melanoma SK-MEL-5, 10 μM) was less than 5%. For the same compound, the inhibition at 10 µM (SK-MEL-28, Melanoma SK-MEL-28, 10 μM) was less than 5%, the inhibition at 10 µM (SK-OV-3, Ovarian cancer SK-OV-3, 10 μM) was less than 5% and the inhibition at 10 µM (SN12C, Renal cancer SN12C, 10 μM) was 6.46%. For the same compound, the inhibition at 10 µM (SNB-19, CNS Cancer SNB-19, 10 μM) was 5.52%, the inhibition at 10 µM (SNB-75, CNS Cancer SNB-75, 10 μM) was 15.6% and the inhibition at 10 µM (SW-620, Colon cancer SW-620, 10 μM) was less than 5%. It also gave an inhibition at 10 µM (T47D, Breast cancer T-47D, 10 μM) of 12.2%, an inhibition at 10 µM (TK-10, Renal cancer TK-10, 10 μM) of less than 5% and an inhibition at 10 µM (U-251, CNS Cancer U251, 10 μM) of less than 5%. For the same compound, the inhibition at 10 µM (UACC-62, Melanoma UACC-62, 10 μM) was less than 5%, the inhibition at 10 µM (UACC-257, Melanoma UACC-257, 10 μM) was less than 5% and the inhibition at 10 µM (UO-31, Renal cancer UO-31, 10 μM) was 37.4%.
